Measurements taken from the supplement of paper PMC10307832.

Experiments:
Assay in all cases: relative viability (nuclei count vs DMSO), 5 days (fraction); higher = more cells survive
[1] = compound: CN(C)C/C=C/C(=O)Nc1cc2c(Nc3ccc(F)c(Cl)c3)ncnc2cc1O[C@H]1CCOC1 [Afatinib] + O=C(CCCCCCC(=O)Nc1ccccc1)NO [Vorinostat] (partner 1 µM)
Summary of the method: (§1)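 Lung cancer cell lines were seeded in 1536-well plates and dosed by pin tool the next day, with either a single drug or a fixed anchor-drug dose combined with five library-drug doses (not always all listed) spaced in √10 steps. Five days later, one step fixed the cells and stained their nuclei (final 0.05% Triton X-100, 1% formaldehyde, 1 ug/ml Hoechst), and nuclei were counted on 4× images. Relative viability is the nuclei count in treated wells divided by the count in vehicle wells, and each value is the median of duplicate plates.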

[2] = compound: CN(C)C/C=C/C(=O)Nc1cc2c(Nc3ccc(F)c(Cl)c3)ncnc2cc1O[C@H]1CCOC1 [Afatinib] + C[C@]1(O)C[C@@H](c2nc(-c3ccc4ccc(-c5ccccc5)nc4c3)c3c(N)nccn32)C1 [Linsitinib] (partner 1 µM)
Summary of the method: as §1

[3] = compound: CN(C)C/C=C/C(=O)Nc1cc2c(Nc3ccc(F)c(Cl)c3)ncnc2cc1O[C@H]1CCOC1 [Afatinib] + CC1(C)CCC(c2ccc(Cl)cc2)=C(CN2CCN(c3ccc(C(=O)NS(=O)(=O)c4ccc(N[C@H](CCN5CCOCC5)CSc5ccccc5)c(S(=O)(=O)C(F)(F)F)c4)cc3)CC2)C1 [Navitoclax] (partner 0.5 µM)
Summary of the method: as §1

[4] = compound: CN(C)C/C=C/C(=O)Nc1cc2c(Nc3ccc(F)c(Cl)c3)ncnc2cc1O[C@H]1CCOC1 [Afatinib] + Cc1nc(NC(=O)N2CCC[C@H]2C(N)=O)sc1-c1ccnc(C(C)(C)C(F)(F)F)c1 [Alpelisib] (partner 2 µM)
Summary of the method: as §1

Row | Cell Line | relative viability ([1]; first compound 0.005 µM) | relative viability ([1]; first compound 0.01581 µM) | relative viability ([1]; first compound 0.05 µM) | relative viability ([1]; first compound 0.1581 µM) | relative viability ([1]; first compound 0.5 µM) | relative viability ([2]; first compound 0.005 µM) | relative viability ([2]; first compound 0.01581 µM) | relative viability ([2]; first compound 0.05 µM) | relative viability ([2]; first compound 0.1581 µM) | relative viability ([2]; first compound 0.5 µM) | relative viability ([3]; first compound 0.005 µM) | relative viability ([3]; first compound 0.01581 µM) | relative viability ([3]; first compound 0.05 µM) | relative viability ([3]; first compound 0.1581 µM) | relative viability ([3]; first compound 0.5 µM) | relative viability ([4]; first compound 0.005 µM) | relative viability ([4]; first compound 0.01581 µM) | relative viability ([4]; first compound 0.05 µM) | relative viability ([4]; first compound 0.1581 µM) | relative viability ([4]; first compound 0.5 µM)
1 | NCI-H596 | 0.706 | 0.541 | 0.571 | 0.745 | 0.62 | 1.06 | 1.16 | 1.1 | 1.02 | 0.888 | 1.01 | 0.94 | 1.03 | 0.815 | 0.934 | 0.542 | 0.512 | 0.528 | 0.385 | 0.538
2 | NCI-H1793 | 0.733 | 0.424 | 0.411 | 0.401 | 0.38 | 0.566 | 0.431 | 0.61 | 0.461 | 0.514 | 0.404 | 0.348 | 0.356 | 0.357 | 0.32 | 0.57 | 0.658 | 0.555 | 0.544 | 0.527
3 | NCI-H1395 | 0.857 | 0.571 | 0.674 | 0.711 | 0.5 | 1.43 | 1.13 | 1.22 | 1.19 | 1.13 | 1.31 | 0.999 | 1.12 | 1.17 | 1.2 | 1.11 | 1.17 | 1.08 | 1.41 | 1.29
4 | HCC-827 | 0.166 | 0.134 | 0.146 | 0.151 | 0.146 | 0.202 | 0.163 | 0.18 | 0.172 | 0.176 | 0.173 | 0.168 | 0.157 | 0.18 | 0.147 | 0.172 | 0.157 | 0.183 | 0.17 | 0.184
5 | NCI-H2228 | 0.928 | 0.444 | 0.566 | 0.698 | 0.462 | 0.604 | 0.778 | 0.631 | – | 0.502 | 0.864 | 0.906 | 0.865 | – | 0.51 | 0.74 | 0.78 | 0.688 | – | 0.589
6 | EMC-BAC-2 | 0.558 | 0.236 | 0.596 | 0.465 | 0.438 | 0.747 | 0.684 | 0.697 | 0.59 | 0.572 | 1.09 | 1.1 | 1.02 | 0.895 | 0.906 | 0.734 | 0.635 | 0.635 | 0.603 | 0.634
7 | NCI-H23 | 0.787 | 0.589 | 0.615 | 0.619 | 0.591 | 0.601 | 0.628 | 0.584 | 0.523 | 0.486 | 0.973 | 0.843 | 0.881 | 0.735 | 0.814 | 0.771 | 0.735 | 0.725 | 0.636 | 0.561
8 | RERF-LC-KJ | 0.713 | 0.636 | 0.544 | 0.574 | 0.519 | 0.888 | 0.9 | 0.76 | 0.656 | 0.716 | 0.786 | 0.766 | 0.874 | – | 0.751 | 0.784 | 0.636 | 0.601 | 0.572 | 0.502
